Assay results published in patent publication US20250120372A1, “HUMANIZED MOUSE MODEL OF FIBROSIS” (The Jackson Laboratory, priority 2021, published 2025).

Assays:
NSG-SGM3 BLT mice [1] = details: mouse, in vivo
Description: SLG20 alginate 500 μm diameter spheres (“alginate spheres,” 0.5 ml total implant volume) were implanted into the intraperitoneal (IP) space of pro-fibrotic C57BL/6 mice and various humanized mouse models, retained for 28 days, and analyzed for degree of fibrosis upon alginate sphere retrieval. […] Experiments repeated at least 3 times.
Implanted mice were anesthetized with 3% isoflurane in oxygen and their abdomens were shaved and sterilized using betadine and isopropanol. Preoperatively, all mice received 0.05 mg/kg buprenorphine and 0.2 mL of 0.9% saline SC for pre-surgery analgesia and hydration. A midline incision (0.5 mm) was made and the peritoneal lining was exposed using blunt dissection. The peritoneal wall was then grasped with forceps and a 0.5-1 mm incision was made along the linea alba. 500 μL of spheres were then loaded into a sterile pipette and implanted into the intraperitoneal (IP) space. The incision was then closed using 5-0 PDS II absorbable sutures, and the skin was closed using wound clips and VetBond tissue glue. […] For macrophage depletion, clodrosomes (200 μL/mouse) (Encapsula NanoSciences, Nashville, TN) were injected IP starting at −3 days (prior to implant day 0), and for every 7 days thereafter (on days −3, 4, and 11). […]

NSG-SGM3 BLT mice [2] = details: mouse, in vivo, sc
Description: All wild type male immune-competent C57BL/6 mice or immunodeficient strains used for producing humanized models (described below) were ordered pathogen-free from The Jackson Laboratory (Bar Harbor, ME). Implanted mice were anesthetized with 3% isoflurane in oxygen and their abdomens were shaved and sterilized using betadine and isopropanol. Preoperatively, all mice received 0.05 mg/kg buprenorphine and 0.2 mL of 0.9% saline SC for pre-surgery analgesia and hydration.
For phase contrast imaging retrieved materials were gently washed using Krebs buffer and transferred into 35 mm petri dishes for phase contrast microscopy using an EVOS XL microscope (Advanced Microscopy Group). For bright-field imaging of retrieved materials, samples were gently washed using Krebs buffer and transferred into 35 mm petri dishes for bright-field imaging using a Leica Stereoscopic microscope.
Retrieved material-containing tissue (intraperitoneal and/or subcutaneous) was fixed overnight using 4% paraformaldehyde at 4° C. After fixation, alginate sphere or retrieved tissue samples were washed using 70% alcohol. The materials were then paraffin embedded, sectioned at 5 μm thickness and stained according to standard histological (H&E or Masson's Trichrome) methods.

Substance | FBR / fibrosis (NSG-SGM3 BLT mice [1]) | fibrotic encapsulation upon retrieval (NSG-SGM3 BLT mice [2])
polydimethylsiloxane [PDMS 5 mm molded discs] | fibrosis of synthetic biomaterial polymer implants was observed | –
polystyrene [Polystyrene spheres] | fibrosis of synthetic biomaterial polymer implants was observed | prominent fibrotic encapsulation
